The EC50 is the concentration needed to bring the measured effect to its halfway point.

Consider 7 molecules from US9868772B2 (INDIANA UNIVERSITY RESEARCH AND TECHNOLOGY CORPORATION, priority 2012, dated 2018).

Assay [1] deals with T1, GIP receptor (Homo sapiens, UniProt P48546).
T1 construct: expressed in transfected cells; host or cells: HEK293
T1 sequence (P48546 22-466): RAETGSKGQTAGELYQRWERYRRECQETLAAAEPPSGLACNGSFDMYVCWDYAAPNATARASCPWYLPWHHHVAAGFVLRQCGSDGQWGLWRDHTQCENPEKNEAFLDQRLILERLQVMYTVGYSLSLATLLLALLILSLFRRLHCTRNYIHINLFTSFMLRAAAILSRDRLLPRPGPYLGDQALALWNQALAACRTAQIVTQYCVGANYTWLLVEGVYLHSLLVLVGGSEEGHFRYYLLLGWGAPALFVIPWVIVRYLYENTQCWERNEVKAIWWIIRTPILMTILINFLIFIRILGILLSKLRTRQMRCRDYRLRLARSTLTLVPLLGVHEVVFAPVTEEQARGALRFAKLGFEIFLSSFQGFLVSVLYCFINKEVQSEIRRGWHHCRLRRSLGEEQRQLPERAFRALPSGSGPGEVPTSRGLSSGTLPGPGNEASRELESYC
As to conditions: relative to native GIP; cited from earlier work.

In assay [2] the target is T2, GLP-1 receptor (Homo sapiens, UniProt P43220).
T2 construct: expressed in transfected cells; host or cells: HEK293
Kind of assay: cAMP induction, firefly luciferase reporter assay in HEK293 cells co-transfected with receptor. It counts as cell-based. The method, then:
(§1) The ability of glucagon analogs to induce cAMP was measured in a firefly luciferase-based reporter assay. […] At the end of the incubation 100 microliters of LucLite luminescence substrate reagent (Perkin-Elmer, Wellesley, Mass.) were added to each well. […] Effective 50% concentrations were calculated by using Origin software (OriginLab, Northampton, Mass.
In general terms: A reporter such as luciferase makes a cellular process visible.

Assay [3] deals with T1, GIP receptor. The description is as above. It counts as cell-based. On the procedure: as §1
Assay [4] has as its target T3, glucagon receptor (Homo sapiens, UniProt P47871).
T3 construct: expressed in transfected cells; host or cells: HEK293
Described as above. It counts as cell-based. The method, then: as §1

Where [5] appears, read: Table 2, analogs of SEQ ID NO: 10.
Where [6] appears, read: Table 1, analogs of SEQ ID NO: 37.
[7] abbreviates: Table 3, analogs of SEQ ID NO: 12.

Numbered stars: 1 amine (or outer) side, 2 acyl side, 3 side chain; on linkers, the order of the positions; unused ones are H or OH. Square brackets hold non-standard residues; d marks the D form. Side chains are listed from the residue outwards. Peptide text beside a SMILES is read from it. * marks the point of attachment. γGlu = O=C(O)[C@H](CCC(=O)[*:2])N[*:1]; Desaminohistidyl = O=C(CCc1c[nH]cn1)*; Desaminotyrosyl = O=C(CCc1ccc(O)cc1)*; Palmitoyl = CCCCCCCCCCCCCCCC(=O)*; 2Thi = N[C@@H](Cc1cccs1)C(=O)O

T3 sequence (P47871 26-477): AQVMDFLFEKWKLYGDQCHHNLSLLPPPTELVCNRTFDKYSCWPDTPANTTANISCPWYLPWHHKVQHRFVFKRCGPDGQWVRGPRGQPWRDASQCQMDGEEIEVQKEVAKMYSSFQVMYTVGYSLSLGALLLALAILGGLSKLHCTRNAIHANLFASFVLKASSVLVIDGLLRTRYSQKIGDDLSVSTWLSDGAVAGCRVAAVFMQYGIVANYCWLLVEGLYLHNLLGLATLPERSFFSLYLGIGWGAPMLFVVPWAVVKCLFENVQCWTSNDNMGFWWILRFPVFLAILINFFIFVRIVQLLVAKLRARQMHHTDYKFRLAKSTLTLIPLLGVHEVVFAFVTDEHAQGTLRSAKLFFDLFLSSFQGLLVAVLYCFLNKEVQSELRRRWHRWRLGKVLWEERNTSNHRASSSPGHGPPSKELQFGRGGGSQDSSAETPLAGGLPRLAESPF
T2 sequence (P43220 24-463): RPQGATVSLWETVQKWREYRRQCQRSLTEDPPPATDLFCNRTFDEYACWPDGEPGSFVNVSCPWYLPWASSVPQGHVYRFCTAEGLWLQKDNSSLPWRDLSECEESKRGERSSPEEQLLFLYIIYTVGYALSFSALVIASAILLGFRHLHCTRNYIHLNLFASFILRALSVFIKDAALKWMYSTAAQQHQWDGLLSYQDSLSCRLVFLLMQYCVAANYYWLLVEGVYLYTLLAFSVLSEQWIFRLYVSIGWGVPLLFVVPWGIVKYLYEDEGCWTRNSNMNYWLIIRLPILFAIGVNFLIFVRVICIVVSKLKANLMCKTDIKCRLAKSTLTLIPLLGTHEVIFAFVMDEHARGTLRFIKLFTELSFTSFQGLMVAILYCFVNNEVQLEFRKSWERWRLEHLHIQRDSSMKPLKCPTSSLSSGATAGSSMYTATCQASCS

For the molecule “Native glucagon: native human glucagon (SEQ ID NO: 1)”, the “activity of native GIP at the GIP receptor” value in assay [1] is on record as ~0%.
On to `CCCCCCCCCCCCCCCC(=O)N[C@@H](CCC(=O)N[C@@H](CCC(=O)NCCCC[C@H](NC(=O)[C@H](CO)NC(=O)[C@@H]1CCCN1C(=O)[C@@H]1CCCN1C(=O)[C@@H]1CCCN1C(=O)[C@H](C)NC(=O)CNC(=O)[C@H](CO)NC(=O)[C@H](CO)NC(=O)[C@@H]1CCCN1C(=O)CNC(=O)CNC(=O)[C@H](CCC(=O)O)NC(=O)[C@H](CC(C)C)NC(=O)[C@H](CC(C)C)NC(=O)[C@H](Cc1c[nH]c2ccccc12)NC(=O)[C@H](CCC(N)=O)NC(=O)[C@@H](NC(=O)[C@H](Cc1ccccc1)NC(=O)[C@H](CC(=O)O)NC(=O)[C@H](CCC(N)=O)NC(=O)[C@H](C)NC(=O)[C@H](C)NC(=O)[C@H](CCCNC(=N)N)NC(=O)[C@H](CCC(=O)O)NC(=O)[C@H](CC(=O)O)NC(=O)[C@H](CC(C)C)NC(=O)[C@H](Cc1ccc(O)cc1)NC(=O)[C@H](CCCCN)NC(=O)[C@H](CO)NC(=O)[C@H](Cc1ccc(O)cc1)NC(=O)[C@H](CC(=O)O)NC(=O)[C@H](CO)NC(=O)[C@@H](NC(=O)[C@H](Cc1ccccc1)NC(=O)[C@@H](NC(=O)CNC(=O)[C@H](CCC(N)=O)NC(=O)[C@H](C)NC(=O)CCc1ccc(O)cc1)[C@@H](C)O)[C@@H](C)O)C(C)C)C(=O)NCC(N)=O)C(=O)O)C(=O)O` [compound 160] (Desaminotyrosyl-AQGTFTSDYSKYLDERAAQDFVQWLLEGGPSSGAPPPSK([γGlu-γGlu-Palmitoyl])G-NH2), for which the concentration giving a half-maximal response (EC50) in assay [2] (setting [5]) came to 0.022 nM; in assay [3] (setting [5]), 0.086 nM; in assay [4] (setting [5]), 0.049 nM.
As for `CCCCCCCCCCCCCCCC(=O)N[C@@H](CCC(=O)NCCCC[C@H](NC(=O)[C@H](CC(=O)O)NC(=O)[C@H](CO)NC(=O)[C@@H](NC(=O)[C@H](Cc1ccccc1)NC(=O)[C@@H](NC(=O)CNC(=O)[C@H](CCC(N)=O)NC(=O)CNC(=O)[C@@H](N)Cc1cccs1)[C@@H](C)O)[C@@H](C)O)C(=O)N[C@@H](CO)C(=O)N[C@@H](CCCCN)C(=O)N[C@@H](Cc1ccc(O)cc1)C(=O)N[C@@H](CC(C)C)C(=O)N[C@@H](CC(=O)O)C(=O)N[C@@H](CCC(=O)O)C(=O)N[C@@H](CCCNC(=N)N)C(=O)N[C@@H](C)C(=O)N[C@@H](C)C(=O)N[C@@H](CCC(N)=O)C(=O)N[C@@H](CC(=O)O)C(=O)N[C@@H](Cc1ccccc1)C(=O)N[C@H](C(=O)N[C@@H](CCC(N)=O)C(=O)N[C@@H](Cc1c[nH]c2ccccc12)C(=O)N[C@@H](CC(C)C)C(=O)N[C@@H](CC(C)C)C(=O)N[C@@H](CCC(=O)O)C(=O)NCC(=O)NCC(=O)N1CCC[C@H]1C(=O)N[C@@H](CO)C(=O)N[C@@H](CO)C(=O)NCC(=O)N[C@@H](C)C(=O)N1CCC[C@H]1C(=O)N1CCC[C@H]1C(=O)N1CCC[C@H]1C(=O)N[C@@H](CO)C(N)=O)C(C)C)C(=O)O` [compound 29] (H-[2Thi]GQGTFTSDK([γGlu-Palmitoyl])SKYLDERAAQDFVQWLLEGGPSSGAPPPS-NH2; N-terminus assumed), the EC50 was found to be 0.007 nM in assay [2] (setting [6]), 0.095 nM in assay [3] (setting [6]) and 0.038 nM in assay [4] (setting [6]).
`CCCCCCCCCCCCCCCC(=O)N[C@@H](CCC(=O)NCCCC[C@H](NC(=O)[C@H](CC(=O)O)NC(=O)[C@H](CO)NC(=O)[C@@H](NC(=O)[C@H](Cc1ccccc1)NC(=O)[C@@H](NC(=O)CNC(=O)[C@H](CCC(=O)O)NC(=O)[C@H](C)NC(=O)[C@@H](Cc1ccc(O)cc1)NC(C)=O)[C@@H](C)O)[C@@H](C)O)C(=O)N[C@@H](CO)C(=O)N[C@@H](CCCCN)C(=O)N[C@@H](Cc1ccc(O)cc1)C(=O)N[C@@H](CC(C)C)C(=O)N[C@@H](CC(=O)O)C(=O)N[C@@H](CCC(=O)O)C(=O)N[C@@H](CCCNC(=N)N)C(=O)N[C@@H](C)C(=O)N[C@@H](C)C(=O)N[C@@H](CCC(N)=O)C(=O)N[C@@H](CC(=O)O)C(=O)N[C@@H](Cc1ccccc1)C(=O)N[C@H](C(=O)N[C@@H](CCC(N)=O)C(=O)N[C@@H](Cc1c[nH]c2ccccc12)C(=O)N[C@@H](CC(C)C)C(=O)N[C@@H](CC(C)C)C(=O)N[C@@H](CCC(=O)O)C(=O)NCC(=O)NCC(=O)N1CCC[C@H]1C(=O)N[C@@H](CO)C(=O)N[C@@H](CO)C(=O)NCC(=O)N[C@@H](C)C(=O)N1CCC[C@H]1C(=O)N1CCC[C@H]1C(=O)N1CCC[C@H]1C(=O)N[C@@H](CO)C(N)=O)C(C)C)C(=O)O` [compound 141]: the EC50 in assay [2] (setting [5]) was 0.006 nM; in assay [3] (setting [5]) it was 0.002 nM; in assay [4] (setting [5]), 0.419 nM.
The corresponding values for `CCCCCCCCCCCCCCCC(=O)N[C@@H](CCC(=O)NCCCC[C@H](NC(=O)[C@H](CC(=O)O)NC(=O)[C@H](CO)NC(=O)[C@@H](NC(=O)[C@H](Cc1ccccc1)NC(=O)[C@@H](NC(=O)CNC(=O)[C@H](CCC(N)=O)NC(=O)[C@H](C)NC(=O)[C@@H](Cc1c[nH]cn1)NC(C)=O)[C@@H](C)O)[C@@H](C)O)C(=O)N[C@@H](CO)C(=O)N[C@@H](CCCCN)C(=O)N[C@@H](Cc1ccc(O)cc1)C(=O)N[C@@H](CC(C)C)C(=O)N[C@@H](CC(=O)O)C(=O)N[C@@H](CCC(=O)O)C(=O)N[C@@H](CCCNC(=N)N)C(=O)N[C@@H](C)C(=O)N[C@@H](C)C(=O)N[C@@H](CCC(N)=O)C(=O)N[C@@H](CC(=O)O)C(=O)N[C@@H](Cc1ccccc1)C(=O)N[C@H](C(=O)N[C@@H](CCC(N)=O)C(=O)N[C@@H](Cc1c[nH]c2ccccc12)C(=O)N[C@@H](CC(C)C)C(=O)N[C@@H](CC(C)C)C(=O)N[C@@H](CCC(=O)O)C(=O)N[C@@H](C)C(=O)NCC(=O)N1CCC[C@H]1C(=O)N[C@@H](CO)C(=O)N[C@@H](CO)C(=O)NCC(=O)N[C@@H](C)C(=O)N1CCC[C@H]1C(=O)N1CCC[C@H]1C(=O)N1CCC[C@H]1C(=O)N[C@@H](CO)C(N)=O)C(C)C)C(=O)O` [compound 151] (Ac-[dH]AQGTFTSDK([γGlu-Palmitoyl])SKYLDERAAQDFVQWLLEAGPSSGAPPPS-NH2) are 0.002 nM, 0.014 nM and 0.003 nM.
On to `CCCCCCCCCCCCCCCC(=O)N[C@@H](CCC(=O)NCCCC[C@H](NC(=O)[C@H](CC(=O)O)NC(=O)[C@H](CO)NC(=O)[C@@H](NC(=O)[C@H](Cc1ccccc1)NC(=O)[C@@H](NC(=O)CNC(=O)[C@H](CCC(N)=O)NC(=O)CNC(=O)CCc1c[nH]cn1)[C@@H](C)O)[C@@H](C)O)C(=O)N[C@@H](CO)C(=O)N[C@@H](CCCCN)C(=O)N[C@@H](Cc1ccc(O)cc1)C(=O)N[C@@H](CC(C)C)C(=O)N[C@@H](CC(=O)O)C(=O)N[C@@H](CCC(=O)O)C(=O)N[C@@H](CCCNC(=N)N)C(=O)N[C@@H](C)C(=O)N[C@@H](C)C(=O)N[C@@H](CCC(N)=O)C(=O)N[C@@H](CC(=O)O)C(=O)N[C@@H](Cc1ccccc1)C(=O)N[C@H](C(=O)N[C@@H](CCC(N)=O)C(=O)N[C@@H](Cc1c[nH]c2ccccc12)C(=O)N[C@@H](CC(C)C)C(=O)N[C@@H](CC(C)C)C(=O)N[C@@H](CCC(=O)O)C(=O)NCC(=O)NCC(=O)N1CCC[C@H]1C(=O)N[C@@H](CO)C(=O)N[C@@H](CO)C(=O)NCC(=O)N[C@@H](C)C(=O)N1CCC[C@H]1C(=O)N1CCC[C@H]1C(=O)N1CCC[C@H]1C(=O)N[C@@H](CO)C(N)=O)C(C)C)C(=O)O` [compound 31] (Desaminohistidyl-GQGTFTSDK([γGlu-Palmitoyl])SKYLDERAAQDFVQWLLEGGPSSGAPPPS-NH2), for which the EC50 in assay [2] (setting [6]) is 0.003 nM; in assay [3] (setting [6]) it was 0.226 nM; in assay [4] (setting [6]) it was 0.022 nM.
With `CCCCCCCCCCCCCCCC(=O)N[C@@H](CCC(=O)NCCCC[C@H](NC(=O)[C@H](CC(=O)O)NC(=O)[C@H](CO)NC(=O)[C@@H](NC(=O)[C@H](Cc1ccccc1)NC(=O)[C@@H](NC(=O)CNC(=O)[C@H](CCC(N)=O)NC(=O)[C@H](C)NC(=O)[C@@H](Cc1ccc(O)cc1)NC(C)=O)[C@@H](C)O)[C@@H](C)O)C(=O)N[C@@H](CO)C(=O)N[C@@H](CCCCN)C(=O)N[C@@H](Cc1ccc(O)cc1)C(=O)N[C@@H](CC(C)C)C(=O)N[C@@H](CC(=O)O)C(=O)N[C@@H](CCC(=O)O)C(=O)N[C@@H](CCCNC(=N)N)C(=O)N[C@@H](C)C(=O)N[C@@H](C)C(=O)N[C@@H](CCC(N)=O)C(=O)N[C@@H](CC(=O)O)C(=O)N[C@@H](Cc1ccccc1)C(=O)N[C@H](C(=O)N[C@@H](CCC(N)=O)C(=O)N[C@@H](Cc1c[nH]c2ccccc12)C(=O)N[C@@H](CC(C)C)C(=O)N[C@@H](CC(C)C)C(=O)N[C@@H](CC(=O)O)C(=O)N[C@@H](CC(C)C)C(=O)NCC(=O)N1CCC[C@H]1C(=O)N[C@@H](CO)C(=O)N[C@@H](CO)C(=O)NCC(=O)N[C@@H](C)C(=O)N1CCC[C@H]1C(=O)N1CCC[C@H]1C(=O)N1CCC[C@H]1C(=O)N[C@@H](CO)C(N)=O)C(C)C)C(=O)O` [compound 153] (Ac-[dY]AQGTFTSDK([γGlu-Palmitoyl])SKYLDERAAQDFVQWLLDLGPSSGAPPPS-NH2), the EC50 was determined as 0.017 nM in assay [2] (setting [7]), 0.018 nM in assay [3] (setting [7]) and 0.021 nM in assay [4] (setting [7]).
